Experimental findings from ChEMBL document CHEMBL3860072, “Synthesis of a selective HDAC6 inhibitor active in neuroblasts” (Bioorg Med Chem Lett, 2016) are described below.

The term IC50 denotes the point on the concentration scale where inhibition reaches its midpoint.

A short description of data set [1]: Effective passive permeability of the compound assessed as membrane retention at 100 uM at pH 7.4 after 18 hrs by UHPLC-UV based PAMPA-BBB assay. As to conditions: pH 7.4, 18 h. The data set is classed as ADME. On the technique in general: PAMPA measures passive passage across an artificial lipid membrane.
Data set [2] can be described thus: Effective passive permeability of the compound at 100 uM at pH 7.4 after 18 hrs by UHPLC-UV based PAMPA-BBB assay. The data set is classed as ADME. As to conditions: read-out: Peff.
Data set [3] has as its target T1, Protein deacetylase HDAC6 (Homo sapiens, UniProt Q9UBN7).
T1 sequence (Q9UBN7 whole entry): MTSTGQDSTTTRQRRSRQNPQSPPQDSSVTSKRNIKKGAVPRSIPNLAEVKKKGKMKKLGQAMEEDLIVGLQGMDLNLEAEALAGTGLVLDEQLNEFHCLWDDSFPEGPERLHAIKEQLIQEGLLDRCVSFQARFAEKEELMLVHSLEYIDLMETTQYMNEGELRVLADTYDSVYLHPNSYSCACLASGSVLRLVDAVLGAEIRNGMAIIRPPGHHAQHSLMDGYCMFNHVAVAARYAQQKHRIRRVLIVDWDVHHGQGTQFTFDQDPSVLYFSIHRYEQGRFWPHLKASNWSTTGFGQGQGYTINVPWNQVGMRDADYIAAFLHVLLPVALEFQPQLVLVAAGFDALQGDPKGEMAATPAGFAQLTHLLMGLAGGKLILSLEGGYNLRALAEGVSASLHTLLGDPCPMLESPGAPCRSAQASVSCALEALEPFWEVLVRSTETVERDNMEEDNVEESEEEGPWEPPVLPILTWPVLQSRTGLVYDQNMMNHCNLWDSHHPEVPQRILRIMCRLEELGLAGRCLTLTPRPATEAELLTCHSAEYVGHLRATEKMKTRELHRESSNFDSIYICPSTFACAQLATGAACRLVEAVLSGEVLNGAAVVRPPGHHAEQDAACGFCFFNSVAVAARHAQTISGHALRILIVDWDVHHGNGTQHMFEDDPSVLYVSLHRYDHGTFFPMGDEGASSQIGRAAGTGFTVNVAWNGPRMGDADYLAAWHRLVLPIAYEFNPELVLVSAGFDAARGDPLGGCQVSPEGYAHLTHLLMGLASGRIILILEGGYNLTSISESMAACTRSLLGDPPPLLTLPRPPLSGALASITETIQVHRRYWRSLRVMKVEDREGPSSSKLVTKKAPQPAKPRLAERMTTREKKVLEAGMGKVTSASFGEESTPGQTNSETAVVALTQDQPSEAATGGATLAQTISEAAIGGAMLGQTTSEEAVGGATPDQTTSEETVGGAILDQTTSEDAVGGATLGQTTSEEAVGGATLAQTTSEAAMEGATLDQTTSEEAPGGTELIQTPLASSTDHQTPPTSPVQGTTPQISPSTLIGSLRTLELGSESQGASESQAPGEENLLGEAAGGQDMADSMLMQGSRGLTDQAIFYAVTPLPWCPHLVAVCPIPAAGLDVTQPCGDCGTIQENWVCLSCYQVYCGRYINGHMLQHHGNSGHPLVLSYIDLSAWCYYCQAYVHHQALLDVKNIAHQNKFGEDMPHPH
As to the kind of experiment: Inhibition of human recombinant HDAC6 expressed in baculovirus infected insect cells using BATCP as substrate after 4 hrs by UHPLC-ESI-MS/MS analysis.

Data set [4] concerns the target T1, Protein deacetylase HDAC6. The experiment in a line: Inhibition of HDAC6 in human SHSY5Y cells using BATCP as substrate after 8 hrs by UHPLC-ESI-MS/MS analysis. The data set is classed as cell-based, SH-SY5Y.
Data set [5] addresses Histone deacetylase 1/2/3 (Homo sapiens, UniProt Q13547+O15379+Q92769). The data set is classed as protein assay.
The target of data set [6] is T2, Histone deacetylase 1 (Homo sapiens, UniProt Q13547). As to the kind of experiment: biochemical.
Data set [7] has as its target T2, Histone deacetylase 1.
Data set [8] can be described thus: Inhibition of HDAC in human SHSY5Y cells using MAL as substrate after 8 hrs by UHPLC-ESI-MS/MS analysis. The data set is classed as cell-based. The following applies: SH-SY5Y.

T2 sequence (Q13547 whole entry): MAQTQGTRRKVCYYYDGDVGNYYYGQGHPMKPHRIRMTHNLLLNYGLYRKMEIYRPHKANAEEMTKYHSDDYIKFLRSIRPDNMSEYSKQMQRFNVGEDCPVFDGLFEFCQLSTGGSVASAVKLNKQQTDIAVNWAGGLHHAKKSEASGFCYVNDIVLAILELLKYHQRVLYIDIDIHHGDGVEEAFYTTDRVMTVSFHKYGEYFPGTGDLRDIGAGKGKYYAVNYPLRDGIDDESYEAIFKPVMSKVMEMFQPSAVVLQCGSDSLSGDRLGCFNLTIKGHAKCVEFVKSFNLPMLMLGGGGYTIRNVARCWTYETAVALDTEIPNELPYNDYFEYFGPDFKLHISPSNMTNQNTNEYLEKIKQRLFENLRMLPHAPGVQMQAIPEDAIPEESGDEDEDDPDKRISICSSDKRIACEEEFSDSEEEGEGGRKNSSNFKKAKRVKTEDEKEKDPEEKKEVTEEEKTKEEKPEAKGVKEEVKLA

Regarding `CC(C)(C)OC(=O)ON(C(=O)CCCCCCC(=O)N(OC(=O)OC(C)(C)C)C(=O)OC(C)(C)C)C(=O)OC(C)(C)C`, the R% in data set [1] was < 1%. For the same compound, the Papp at 18 h, 100 µM in data set [2] is < 2 ×10⁻⁶ cm/s.
As to `O=C(CCCCCc1ccc2c(c1)OCO2)NO`, the IC50 in data set [3] amounted to 36.7 nM; in data set [4], 164 nM; in data set [5], 188.1 nM; against Histone deacetylase 1 [6], 560 nM; on Histone deacetylase 1 [7], 973 nM; in data set [8], 310 nM. Also, in data set [1], the R% came to 6.8%. Further, the Papp at 18 h, 100 µM in data set [2] worked out at 8.7 ×10⁻⁶ cm/s.
With `O=C(CCCCCCC(=O)NO)NO` [SUBEROHYDROXAMIC ACID], the R% in data set [1] was < 1%. Besides, the Papp at 18 h, 100 µM in data set [2] was < 2 ×10⁻⁶ cm/s.
The compound `CC(/C=C/C(=O)NO)=C\[C@@H](C)C(=O)c1ccc(N(C)C)cc1` [TRICHOSTATIN] yielded an IC50 in data set [8] of 9.1 nM.
Turning to `CN1CCc2c(c3ccccc3n2Cc2ccc(C(=O)NO)cc2)C1` [TUBASTATIN A], the R% in data set [1] was determined as 70.8%. Moreover, the IC50 in data set [8] is 122 nM. The Papp at 18 h, 100 µM in data set [2] stood at 6.8 ×10⁻⁶ cm/s.
